Counter-ions that a name gives are not always drawn.

The first experiment deals with T1, rh beta tryptase (Homo sapiens, UniProt P20231).
T1 construct: purchased Promega
T1 sequence (P20231 31-275): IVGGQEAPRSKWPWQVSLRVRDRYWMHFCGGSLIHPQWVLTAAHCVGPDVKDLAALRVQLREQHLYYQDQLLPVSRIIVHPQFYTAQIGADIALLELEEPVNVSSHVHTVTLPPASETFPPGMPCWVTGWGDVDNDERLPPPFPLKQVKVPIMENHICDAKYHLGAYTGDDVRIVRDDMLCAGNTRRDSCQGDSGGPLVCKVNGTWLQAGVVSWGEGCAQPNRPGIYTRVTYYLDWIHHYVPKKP
In words: Tryptase inhibition test (cleavage of N-p-tosyl-Gly-Pro-Lys-para-nitroaniline, p-nitroaniline measured at 405 nm). The experiment is classed as biochemical. To be noted: concentration at which 50% of the tryptase enzyme activity is inhibited; substrate 0.6 mM, pH 7.4, 37° C. In outline:
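Recombinant human beta tryptase (0.91 U/ml) in 100 mM Tris HCl pH 7.4 with 5 mM calcium and 100 mg/ml heparin; compounds pre-incubated 5 min, then 0.6 mM tosyl-Gly-Pro-Lys-pNA added, 5 min at 37 °C. p-Nitroaniline read at 405 nm; % inhibition at 10 μM, IC50 determined when inhibition exceeded 70%.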
Molecule `Cn1c(CCc2ccc(C(=N)N)cc2)nc2cc(C(=O)N(CCC(=N)N)Cc3cnc4ccccc4c3)ccc21` [Example 8, 2-[2-(4-Amidinophenyl)-ethyl]-1-methyl-benzimidazol-5-yl-carboxylic Acid-N-(2-amidinoethyl)-N-(quinolin-3-yl-methyl)-amide-dihydrochloride] registered an IC50 of 201 nM.

Molecule `CCOCCCn1c(CCc2ccc(C(=N)N)cc2)nc2cc(C(=O)N(Cc3ccccc3)Cc3ccc(CN)cc3)ccc21` [Example 102, 2-[2-(4-amidinophenyl)ethyl]-1-(3-ethoxypropyl)-benzimidazol-5-yl-carboxylic acid-N-[4-(amino-methyl)-benzyl]-N-benzyl-amide] gave an IC50 of 369 nM.

As to “2-[2-(4-amidinophenyl)ethyl]-1-(3-ethoxypropyl)-benzimidazol-5-yl-carboxylic acid-N-[4-(amino-methyl)-benzyl]-N-(2-pyridyl)-amide [Example 118]”, half-maximal inhibition (IC50) was put at 304 nM.

In the case of `CCOCCCn1c(CCc2ccc(C(=N)N)cc2)nc2cc(C(=O)N(Cc3ccc(CN)cc3)Cc3ccccc3F)ccc21` [Example 214, 2-[2-(4-amidinophenyl)ethyl]-1-(3-ethoxypropyl)-benzimidazol-5-yl-carboxylic acid-N-[4-(amino-methyl)-benzyl]-N-(2-fluorobenzyl)-amide], the IC50 stood at 335 nM.

As to `Cc1ccccc1N1CCCN(C(=O)c2ccc3c(c2)nc(CCc2ccc(C(=N)N)cc2)n3C)CC1` [Example 15, 2-[2-(4-Amidinophenyl)-ethyl]-1-methyl-benzimidazol-5-yl-carboxylic Acid-[N′-(2-methyl-phenyl)-diazepide]-hydrochloride], the half-maximal inhibitory concentration (IC50) worked out at 98 nM.

In turn, `Cn1c(CCc2ccc(CN)cc2)nc2cc(C(=O)N(CCC(c3ccccc3)c3ccccc3)Cc3ccc(CN)cc3)ccc21` [Example 43, 2-[2-(4-Aminomethyl-phenyl)-ethyl]-1-methyl-benzimidazol-5-yl-carboxylic Acid-N-(4-aminomethylbenzyl)-N-(3,3-diphenylpropyl)-amide-dihydrochloride] gave an IC50 of 319 nM.

On to `CCOC(=O)C(Cc1ccc(C(=N)N)cc1)N(C)C(=O)c1ccc2c(c1)nc(CCc1ccc(C(=N)N)cc1)n2C` (stereo not drawn) [Example 29, Ethyl 2-{2-[2-(4-Amidinophenyl)-ethyl]-1-methyl-benzimidazol-5-yl-carbonyl-(methylamino)}-3-(4-amidinophenyl)-propionate-formate], for which the IC50 worked out at 158 nM.

`CCOCCCn1c(CCc2ccc(C(=N)N)cc2)nc2cc(C(=O)N(CCN)CC3CCCCC3)ccc21` [Example 342, 2-[2-(4-amidinophenyl)ethyl]-1-(3-ethoxypropyl)-benzimidazol-5-yl-carboxylic acid-N-(2-aminoethyl)-N-cyclohexylmethyl-amide]: the IC50 amounted to 275 nM.

As for `CCc1cccc(N(CCC(=N)N)C(=O)c2ccc3c(c2)nc(CCc2ccc(C(=N)N)cc2)n3C)c1` [Example 22, 2-[2-(4-Amidinophenyl)-ethyl]-1-methyl-benzimidazol-5-yl-carboxylic Acid-N-(2-amidinoethyl)-N-(3-ethyl-phenyl)-amide-dihydrochloride], the midpoint of inhibition, the IC50, lay at 56 nM.

Take `Cn1c(CCc2ccc(CN)cc2)nc2cc(C(=O)NCCC(c3ccccc3)c3ccccc3)ccc21` [Example 40, 2-[2-(4-Aminomethyl-phenyl)-ethyl]-1-methyl-benzimidazol-5-yl-carboxylic Acid-N-(3,3-diphenylpropyl)-amide-dihydrochloride]: the half-maximal inhibitory concentration (IC50) amounted to 192 nM.

Staying with this experiment, now noted: inhibition of rh beta tryptase at 10 μM test substance; substrate N-p-tosyl-Gly-Pro-Lys-para-nitroaniline 0.6 mM, pH 7.4, 37° C., 5 minutes.
For the molecule `N=C(N)c1ccc(CCc2nc3cc(C(=O)N(Cc4ccccc4)Cc4ccc(CN)cc4)ccc3n2CC2CC2)cc1` [Example 106, 2-[2-(4-amidinophenyl)ethyl]-1-cyclopropylmethyl-benzimidazol-5-yl-carboxylic acid-N-[4-(amino-methyl)-benzyl]-N-benzyl-amide], the inhibition at 10 µM turned out to be 58%.

`N=C(N)c1ccc(CCc2nc3cc(C(=O)N(CCN)CCCc4ccccc4)ccc3n2CC2CCCO2)cc1` (stereo not drawn) [Example 370, 2-[2-(4-amidinophenyl)ethyl]-1-(tetrahydrofuran-2-yl-methyl)-benzimidazol-5-yl-carboxylic acid-N-(2-aminoethyl)-N-(3-phenylpropyl)-amide] gave an inhibition at 10 µM of 53%.

In the case of “2-[2-(4-amidinophenyl)ethyl]-1-(3-ethoxypropyl)-benzimidazol-5-yl-carboxylic acid-N-[4-(amino-methyl)-benzyl]-N-(2-pyridyl)-amide [Example 118]”, the “% Inhibition (10 μM)” value is listed as 71%.

Take “2-[2-(4-amidinophenyl)ethyl]-1-(2-phenylethyl)-benzimidazol-5-yl-carboxylic acid-N-[4-(amino-methyl)-benzyl]-N-(3-pyridyl)-amide [Example 139]”: the “% Inhibition (10 μM)” value worked out at 76%.

In turn, `CCCCN(CCN)C(=O)c1ccc2c(c1)nc(CCc1ccc(C(=N)N)cc1)n2CC1CC1` [Example 282, 2-[2-(4-amidinophenyl)ethyl]-1-cyclopropylmethyl-benzimidazol-5-yl-carboxylic acid-N-(2-aminoethyl)-N-n-butyl-amide] had an inhibition at 10 µM of 65%.

On to `CCOCCCn1c(CCc2ccc(C(=N)N)cc2)nc2cc(C(=O)N(Cc3ccc(CN)cc3)Cc3ccccc3F)ccc21` [Example 214, 2-[2-(4-amidinophenyl)ethyl]-1-(3-ethoxypropyl)-benzimidazol-5-yl-carboxylic acid-N-[4-(amino-methyl)-benzyl]-N-(2-fluorobenzyl)-amide], for which the inhibition at 10 µM is 54%.

Turning to `N=C(N)c1ccc(CCc2nc3cc(C(=O)N(Cc4ccc(CN)cc4)Cc4ccccc4F)ccc3n2CCCNC(=O)Cc2ccccc2)cc1` [Example 216, 2-[2-(4-amidinophenyl)ethyl]-1-[3-(benzylcarbonylamino)-propyl]-benzimidazol-5-yl-carboxylic acid-N-[4-(amino-methyl)-benzyl]-N-(2-fluorobenzyl)-amide], the inhibition at 10 µM came to 65%.

For the molecule `N=C(N)c1ccc(CCc2nc3cc(C(=O)N(Cc4ccc(CN)cc4)Cc4ccc5ccccc5c4)ccc3n2CCCN2CCOCC2)cc1` [Example 241, 2-[2-(4-amidinophenyl)ethyl]-1-[3-(morpholin-4-yl)-propyl]-benzimidazol-5-yl-carboxylic acid-N-[4-(amino-methyl)-benzyl]-N-(2-naphthylmethyl)-amide], 10 µM produced 69% inhibition.

Take “2-[2-(4-amidinophenyl)ethyl]-1-[3-(morpholin-4-yl)-propyl]-benzimidazol-5-yl-carboxylic acid-N-[4-(amino-methyl)-benzyl]-N-(3-pyridyl)-amide [Example 145]”: the “% Inhibition (10 μM)” value was 73%.

In the case of `N=C(N)c1ccc(CCc2nc3cc(C(=O)N(Cc4ccccc4)Cc4ccc(CN)cc4)ccc3n2CCCN2CCOCC2)cc1` [Example 113, 2-[2-(4-amidinophenyl)ethyl]-1-[3-(morpholin-4-yl)-propyl]-benzimidazol-5-yl-carboxylic acid-N-[4-(amino-methyl)-benzyl]-N-benzyl-amide], at 10 µM the inhibition was 56%.

The molecule `N=C(N)c1ccc(CCc2nc3cc(C(=O)N(CCN)CCCc4ccccc4)ccc3n2CC2CC2)cc1` [Example 362, 2-[2-(4-amidinophenyl)ethyl]-1-cyclopropylmethyl-benzimidazol-5-yl-carboxylic acid-N-(2-aminoethyl)-N-(3-phenylpropyl)-amide] registered an inhibition at 10 µM of 74%.

The molecule `CCCCN(CCCC)CCCn1c(CCc2ccc(C(=N)N)cc2)nc2cc(C(=O)N(Cc3ccccc3)Cc3ccc(CN)cc3)ccc21` [Example 103, 2-[2-(4-amidinophenyl)ethyl]-1-(3-di-n-butylaminopropyl)-benzimidazol-5-yl-carboxylic acid-N-[4-(amino-methyl)-benzyl]-N-benzyl-amide] showed an inhibition at 10 µM of 60%.

`Cc1ccc(Cn2c(CCc3ccc(C(=N)N)cc3)nc3cc(C(=O)N(CCCc4ccccc4)Cc4ccc(CN)cc4)ccc32)cc1` [Example 173, 2-[2-(4-amidinophenyl)ethyl]-1-(4-methylbenzyl)-benzimidazol-5-yl-carboxylic acid-N-[4-(amino-methyl)-benzyl]-N-(3-phenylpropyl)-amide] registered an inhibition at 10 µM of 51%.

The molecule `CCCCN(CCN)C(=O)c1ccc2c(c1)nc(CCc1ccc(C(=N)N)cc1)n2CCCNC(=O)Cc1ccccc1` [Example 280, 2-[2-(4-amidinophenyl)ethyl]-1-[3-(benzylcarbonylamino)-propyl]-benzimidazol-5-yl-carboxylic acid-N-(2-aminoethyl)-N-n-butyl-amide] returned an inhibition at 10 µM of 59%.

For the molecule `CCCCN(Cc1ccc(CN)cc1)C(=O)c1ccc2c(c1)nc(CCc1ccc(C(=N)N)cc1)n2Cc1ccc2c(c1)OCO2` [Example 100, 2-[2-(4-amidinophenyl)ethyl]-1-(1,3-benzodioxol-5-yl-methyl)-benzimidazol-5-yl-carboxylic acid-N-[4-(amino-methyl)-benzyl]-N-n-butyl-amide], testing at 10 µM gave an inhibition of 67%.

In the case of `N=C(N)c1ccc(CCc2nc3cc(C(=O)N(Cc4ccc(CN)cc4)CC4CCCCC4)ccc3n2CC2CCCO2)cc1` (stereo not drawn) [Example 162, 2-[2-(4-amidinophenyl)ethyl]-1-(tetrahydrofuran-2-yl-methyl)-benzimidazol-5-yl-carboxylic acid-N-[4-(amino-methyl)-benzyl]-N-cyclohexylmethyl-amide], at 10 µM the inhibition was 60%.

Molecule `CCOCCCn1c(CCc2ccc(C(=N)N)cc2)nc2cc(C(=O)N(CCN)CC3CCCCC3)ccc21` [Example 342, 2-[2-(4-amidinophenyl)ethyl]-1-(3-ethoxypropyl)-benzimidazol-5-yl-carboxylic acid-N-(2-aminoethyl)-N-cyclohexylmethyl-amide] showed an inhibition at 10 µM of 75%.

With `CCCCN(CCCC)CCCn1c(CCc2ccc(C(=N)N)cc2)nc2cc(C(=O)N(CCN)Cc3ccc(Cl)cc3)ccc21` [Example 375, 2-[2-(4-amidinophenyl)ethyl]-1-(3-di-n-butylaminopropyl)-benzimidazol-5-yl-carboxylic acid-N-(2-aminoethyl)-N-(4-chlorbenzyl)-amide], the “% Inhibition (10 μM)” value came to 58%.

`COc1cccc(CN(CCN)C(=O)c2ccc3c(c2)nc(CCc2ccc(C(=N)N)cc2)n3CC2CCCO2)c1` (stereo not drawn) [Example 274, 2-[2-(4-amidinophenyl)ethyl]-1-(tetrahydrofuran-2-yl-methyl)-benzimidazol-5-yl-carboxylic acid-N-(2-aminoethyl)-N-(3-methoxybenzyl)-amide] returned an inhibition at 10 µM of 57%.

`N=C(N)c1ccc(CCc2nc3cc(C(=O)N(CCCc4ccccc4)Cc4ccc(CN)cc4)ccc3n2CCCNC(=O)Cc2ccccc2)cc1` [Example 168, 2-[2-(4-amidinophenyl)ethyl]-1-[3-(benzylcarbonylamino)-propyl]-benzimidazol-5-yl-carboxylic acid-N-[4-(amino-methyl)-benzyl]-N-(3-phenylpropyl)-amide]: testing at 10 µM gave an inhibition of 66%.

Values taken from patent US6512000B1, “Aminocarbonyl-substituted benzimidazoles having tryptase-inhibitory activity” (Boehringer Ingelheim Pharma KG, priority 1999, dated 2003).
